Test: N-nitrosomethylphenidate content of methylphenidate compositions by UHPLC-MS/MS
Format: physicochemical
Conditions: verbal assessment of Table 2; antioxidant/stabilizer in methylphenidate composition
Description: To determine the effect of various antioxidants or stabilizers on the prevention of nitrosamine formation in compositions containing methylphenidate, different pharmaceutical compositions were prepared as described in Example 1 above, except that antioxidants/stabilizers other than ascorbyl palmitate were used. However, for better comparability, the molar ratio of methylphenidate: antioxidant/stabilizer was kept constant at 1:3 in all compositions (except for the composition with no antioxidant/stabilizer). Accordingly, the compositions of Example 1 and Comparative Examples 2 to 7 differ only in the type of antioxidant/stabilizer and are otherwise composed exactly as shown in Table 1 above for Example 1. The content of N-nitrosomethylphenidate in the compositions was determined by UHPLC-MS/MS. Accordingly, the term “nitrosamine” in the present context refers to “N-nitrosomethylphenidate”. For sample preparation, the compositions were ground and the resulting powders were extracted with methanol. The following measurement conditions were used for the N-nitrosomethylphenidate determination: • LC column: Waters BEH Shield RP18 (100x2.1 mm, 1.7 um) • Flow rate: 0.4 mL/min • Column temperature: 50° C. . . . • Mobile phase: Phase A: Water with 0.1% by volume formic acid • Phase B: Acetonitrile • Gradient conditions: […]

**Q.** Which “effectiveness in reducing nitrosamine formation in compositions with methylphenidate” value does the source give for `CCCCCCCCCCCCCCCC(=O)OC[C@H](O)[C@H]1OC(=O)C(O)=C1O` [ascorbyl palmitate] here?
**A.** by far the most effective

Source: patent publication US20250352532A1, “REDUCED N[…] IN PHARMACEUTICAL COMPOSITIONS COMPRISING METHYLPHENIDATE” (MEDICE Arzneimittel Pütter GmbH & Co. KG, priority 2024, published 2025)
